The target of assay [1] is T1, Kinase suppressor of Ras 2 (Homo sapiens) (UniProt Q6VAB6).
T1 sequence (whole entry): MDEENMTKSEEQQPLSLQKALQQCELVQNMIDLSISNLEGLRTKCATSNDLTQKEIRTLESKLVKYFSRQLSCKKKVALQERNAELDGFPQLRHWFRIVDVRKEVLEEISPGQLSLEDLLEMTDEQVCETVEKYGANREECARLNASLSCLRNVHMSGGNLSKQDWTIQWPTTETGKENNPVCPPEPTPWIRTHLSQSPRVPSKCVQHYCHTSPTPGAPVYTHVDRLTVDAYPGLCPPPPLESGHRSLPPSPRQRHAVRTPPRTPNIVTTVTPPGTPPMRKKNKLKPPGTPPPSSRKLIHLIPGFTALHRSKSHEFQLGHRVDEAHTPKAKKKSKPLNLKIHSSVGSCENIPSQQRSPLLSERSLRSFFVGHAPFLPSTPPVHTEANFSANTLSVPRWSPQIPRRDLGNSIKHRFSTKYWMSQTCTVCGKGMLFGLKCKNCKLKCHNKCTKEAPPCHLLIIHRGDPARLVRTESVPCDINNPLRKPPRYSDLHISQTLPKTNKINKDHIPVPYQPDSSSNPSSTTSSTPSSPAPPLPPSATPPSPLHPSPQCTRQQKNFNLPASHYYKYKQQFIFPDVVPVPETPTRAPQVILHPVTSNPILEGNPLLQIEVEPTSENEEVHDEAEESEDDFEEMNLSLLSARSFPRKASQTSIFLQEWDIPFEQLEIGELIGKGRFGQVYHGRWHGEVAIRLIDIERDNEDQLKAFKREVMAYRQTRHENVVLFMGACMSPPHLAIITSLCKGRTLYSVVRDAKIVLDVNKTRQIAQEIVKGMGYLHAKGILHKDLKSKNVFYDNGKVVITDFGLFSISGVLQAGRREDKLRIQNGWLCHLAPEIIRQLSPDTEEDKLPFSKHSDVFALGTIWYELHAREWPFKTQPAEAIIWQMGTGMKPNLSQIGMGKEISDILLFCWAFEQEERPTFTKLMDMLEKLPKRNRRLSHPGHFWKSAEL
Kind of assay: Selectivity interaction (Kinase panel (Z-LYTE Assay)) EUB0001632a KSR2. Particulars: at 10 µM.

The target of assay [2] is Mitogen-activated protein kinase kinase kinase 11 (Homo sapiens) (UniProt Q16584). Particulars: at 10 µM.
Mitogen-activated protein kinase kinase kinase 11 (Homo sapiens), sequence (Q16584 whole entry, looked up): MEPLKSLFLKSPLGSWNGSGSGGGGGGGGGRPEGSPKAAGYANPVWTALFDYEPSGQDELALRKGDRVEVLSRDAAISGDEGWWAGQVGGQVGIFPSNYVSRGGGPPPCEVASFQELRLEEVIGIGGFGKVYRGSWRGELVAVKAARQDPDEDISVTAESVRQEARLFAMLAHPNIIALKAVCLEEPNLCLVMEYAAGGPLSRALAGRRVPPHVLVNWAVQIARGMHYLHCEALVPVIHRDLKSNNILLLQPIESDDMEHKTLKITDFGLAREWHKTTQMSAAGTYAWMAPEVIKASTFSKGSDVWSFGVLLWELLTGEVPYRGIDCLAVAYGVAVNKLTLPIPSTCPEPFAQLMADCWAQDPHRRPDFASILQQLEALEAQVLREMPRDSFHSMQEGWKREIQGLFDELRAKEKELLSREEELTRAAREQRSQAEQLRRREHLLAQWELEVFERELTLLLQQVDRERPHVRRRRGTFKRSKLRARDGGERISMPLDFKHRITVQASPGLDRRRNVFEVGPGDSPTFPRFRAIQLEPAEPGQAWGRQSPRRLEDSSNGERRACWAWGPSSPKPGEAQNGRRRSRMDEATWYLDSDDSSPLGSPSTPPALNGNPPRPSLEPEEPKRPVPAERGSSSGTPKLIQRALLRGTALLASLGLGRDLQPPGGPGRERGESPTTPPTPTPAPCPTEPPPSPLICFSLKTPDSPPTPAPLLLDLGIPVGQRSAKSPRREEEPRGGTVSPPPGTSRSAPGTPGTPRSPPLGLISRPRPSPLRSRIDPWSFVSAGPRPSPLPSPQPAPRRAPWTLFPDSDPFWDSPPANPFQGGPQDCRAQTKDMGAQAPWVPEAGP
For assay [3], the target named is Platelet-derived growth factor receptor beta (Homo sapiens, UniProt P09619). To be noted: at 10 µM.
Platelet-derived growth factor receptor beta, sequence (P09619 whole entry): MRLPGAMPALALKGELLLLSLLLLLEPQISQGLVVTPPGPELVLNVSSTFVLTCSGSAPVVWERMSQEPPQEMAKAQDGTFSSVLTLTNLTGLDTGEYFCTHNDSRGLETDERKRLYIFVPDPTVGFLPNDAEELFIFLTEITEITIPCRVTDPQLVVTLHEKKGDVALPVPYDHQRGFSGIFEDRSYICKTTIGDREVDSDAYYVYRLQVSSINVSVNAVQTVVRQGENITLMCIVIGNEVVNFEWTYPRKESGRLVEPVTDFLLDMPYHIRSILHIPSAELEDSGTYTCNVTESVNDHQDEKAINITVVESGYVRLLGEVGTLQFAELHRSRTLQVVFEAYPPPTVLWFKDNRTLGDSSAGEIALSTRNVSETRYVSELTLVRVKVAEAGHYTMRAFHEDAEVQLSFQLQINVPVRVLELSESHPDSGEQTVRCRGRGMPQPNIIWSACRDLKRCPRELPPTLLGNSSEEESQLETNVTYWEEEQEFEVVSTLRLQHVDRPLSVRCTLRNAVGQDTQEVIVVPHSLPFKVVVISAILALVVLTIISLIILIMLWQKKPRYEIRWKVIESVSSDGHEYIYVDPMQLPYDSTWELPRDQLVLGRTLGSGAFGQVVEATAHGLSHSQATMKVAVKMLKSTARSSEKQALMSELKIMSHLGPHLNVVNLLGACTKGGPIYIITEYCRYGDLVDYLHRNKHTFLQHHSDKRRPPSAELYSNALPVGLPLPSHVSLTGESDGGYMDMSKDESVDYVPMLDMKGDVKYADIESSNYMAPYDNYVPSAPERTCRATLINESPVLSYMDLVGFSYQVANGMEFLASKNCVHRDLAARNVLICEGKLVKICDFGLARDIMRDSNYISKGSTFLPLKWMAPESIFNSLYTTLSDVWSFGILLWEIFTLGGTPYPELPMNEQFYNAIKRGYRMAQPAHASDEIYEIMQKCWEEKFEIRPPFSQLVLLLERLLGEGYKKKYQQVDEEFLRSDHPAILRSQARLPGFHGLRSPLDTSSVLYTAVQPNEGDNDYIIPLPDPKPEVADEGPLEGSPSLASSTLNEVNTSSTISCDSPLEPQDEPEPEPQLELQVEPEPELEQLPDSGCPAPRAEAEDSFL
Assay [4] deals with T2, Protein kinase C epsilon type (Homo sapiens) (UniProt Q02156).
T2 sequence (whole entry): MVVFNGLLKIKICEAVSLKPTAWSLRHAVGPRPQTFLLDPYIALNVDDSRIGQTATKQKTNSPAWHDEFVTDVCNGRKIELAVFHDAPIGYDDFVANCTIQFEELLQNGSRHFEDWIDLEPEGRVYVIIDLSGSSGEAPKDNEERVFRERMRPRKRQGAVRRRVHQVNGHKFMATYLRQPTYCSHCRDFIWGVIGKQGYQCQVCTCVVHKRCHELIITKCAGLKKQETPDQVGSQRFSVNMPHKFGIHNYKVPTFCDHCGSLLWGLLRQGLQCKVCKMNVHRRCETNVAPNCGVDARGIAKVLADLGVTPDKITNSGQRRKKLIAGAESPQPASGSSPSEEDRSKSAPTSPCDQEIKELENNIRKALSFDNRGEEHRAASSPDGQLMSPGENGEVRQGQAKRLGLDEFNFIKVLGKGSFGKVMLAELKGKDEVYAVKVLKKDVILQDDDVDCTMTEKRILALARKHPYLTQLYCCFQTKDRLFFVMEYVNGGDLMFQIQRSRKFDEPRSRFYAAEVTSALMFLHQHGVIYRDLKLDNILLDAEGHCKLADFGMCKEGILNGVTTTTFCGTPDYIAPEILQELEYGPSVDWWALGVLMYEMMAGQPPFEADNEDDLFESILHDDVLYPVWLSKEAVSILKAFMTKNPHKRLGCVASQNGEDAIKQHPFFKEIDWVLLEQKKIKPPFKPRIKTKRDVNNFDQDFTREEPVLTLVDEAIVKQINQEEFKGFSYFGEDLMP
The assay can be described thus: Selectivity interaction (KinomeScan (DiscoverX)) EUB0000666a PRKCE. To be noted: at 10 µM.

For assay [5], the target named is Myosin light chain kinase, smooth muscle (Homo sapiens, UniProt Q15746). Kind of assay: Selectivity interaction (KinomeScan (DiscoverX)) EUB0000229b MYLK. Particulars: at 10 µM.
Assay [6] addresses Protein arginine N-methyltransferase 1 (Homo sapiens, UniProt Q99873). The assay can be described thus: Selectivity interaction (Scintillation proximity assays) EUB0000255b PRMT1.
The target in assay [7] is T3, 3-phosphoinositide-dependent protein kinase 1 (Homo sapiens) (UniProt O15530).
T3 sequence (whole entry): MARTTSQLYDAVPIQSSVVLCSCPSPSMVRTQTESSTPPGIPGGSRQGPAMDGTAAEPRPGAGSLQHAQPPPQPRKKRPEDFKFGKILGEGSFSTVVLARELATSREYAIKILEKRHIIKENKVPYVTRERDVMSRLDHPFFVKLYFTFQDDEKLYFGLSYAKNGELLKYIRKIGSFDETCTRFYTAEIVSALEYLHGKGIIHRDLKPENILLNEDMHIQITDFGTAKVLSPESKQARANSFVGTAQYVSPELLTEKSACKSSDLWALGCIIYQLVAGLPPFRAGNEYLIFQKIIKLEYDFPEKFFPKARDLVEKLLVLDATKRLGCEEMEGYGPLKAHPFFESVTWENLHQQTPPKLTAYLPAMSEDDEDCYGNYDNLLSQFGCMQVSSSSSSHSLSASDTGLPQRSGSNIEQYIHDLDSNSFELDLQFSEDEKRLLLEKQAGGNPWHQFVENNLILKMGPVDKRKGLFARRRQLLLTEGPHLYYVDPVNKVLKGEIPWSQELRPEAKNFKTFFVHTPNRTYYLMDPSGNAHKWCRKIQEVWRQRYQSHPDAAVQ
The assay can be described thus: Selectivity interaction (Kinase panel (literature)) EUB0001199aCl PDPK1. To be noted: at 1 µM.

The target of assay [8] is Tyrosine-protein kinase CSK (Homo sapiens) (UniProt P41240). Kind of assay: Selectivity interaction (ActivX KiNativ screen (kinase selectivity in THP-1 cell lysates)) EUB0000639a CSK. Type of assay: subcellular. To be noted: lysate, at 1 µM.
Tyrosine-protein kinase CSK (Homo sapiens), sequence (P41240 2-450 limits assumed): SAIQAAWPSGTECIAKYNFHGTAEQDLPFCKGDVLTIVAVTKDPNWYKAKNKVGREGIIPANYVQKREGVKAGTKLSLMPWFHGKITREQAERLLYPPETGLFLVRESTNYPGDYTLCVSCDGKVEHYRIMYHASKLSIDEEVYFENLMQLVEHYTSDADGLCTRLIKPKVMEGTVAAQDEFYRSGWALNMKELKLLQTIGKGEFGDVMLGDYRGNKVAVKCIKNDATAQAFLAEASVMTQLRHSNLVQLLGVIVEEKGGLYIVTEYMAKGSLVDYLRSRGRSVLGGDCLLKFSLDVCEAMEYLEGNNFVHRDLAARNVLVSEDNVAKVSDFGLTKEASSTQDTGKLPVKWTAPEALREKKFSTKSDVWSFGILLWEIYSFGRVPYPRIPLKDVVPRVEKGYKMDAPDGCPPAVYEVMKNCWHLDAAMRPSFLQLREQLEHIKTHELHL
For another assay, the target named is D(1A) dopamine receptor (Homo sapiens, UniProt P21728). Kind of assay: Selectivity interaction (Panel of kinases, GPCRs, ion channels and transporters (enzymatic assay)) EUB0000223bCl DRD1.
D(1A) dopamine receptor, sequence (P21728 whole entry): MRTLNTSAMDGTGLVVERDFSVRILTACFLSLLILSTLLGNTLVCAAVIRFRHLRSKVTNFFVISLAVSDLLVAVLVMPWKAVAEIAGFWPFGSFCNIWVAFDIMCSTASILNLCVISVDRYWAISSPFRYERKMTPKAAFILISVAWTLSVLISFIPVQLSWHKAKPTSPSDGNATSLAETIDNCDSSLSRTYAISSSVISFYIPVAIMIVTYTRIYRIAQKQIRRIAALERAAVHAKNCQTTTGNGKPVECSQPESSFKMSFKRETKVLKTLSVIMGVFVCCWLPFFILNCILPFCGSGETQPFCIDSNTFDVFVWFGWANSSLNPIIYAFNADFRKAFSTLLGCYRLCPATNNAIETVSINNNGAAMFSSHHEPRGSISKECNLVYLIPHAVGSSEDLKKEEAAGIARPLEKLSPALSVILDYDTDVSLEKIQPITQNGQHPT

What is called IC50 is the midpoint of a concentration-inhibition curve. A high value points to weaker potency.

Protein arginine N-methyltransferase 1, sequence (Q99873 whole entry): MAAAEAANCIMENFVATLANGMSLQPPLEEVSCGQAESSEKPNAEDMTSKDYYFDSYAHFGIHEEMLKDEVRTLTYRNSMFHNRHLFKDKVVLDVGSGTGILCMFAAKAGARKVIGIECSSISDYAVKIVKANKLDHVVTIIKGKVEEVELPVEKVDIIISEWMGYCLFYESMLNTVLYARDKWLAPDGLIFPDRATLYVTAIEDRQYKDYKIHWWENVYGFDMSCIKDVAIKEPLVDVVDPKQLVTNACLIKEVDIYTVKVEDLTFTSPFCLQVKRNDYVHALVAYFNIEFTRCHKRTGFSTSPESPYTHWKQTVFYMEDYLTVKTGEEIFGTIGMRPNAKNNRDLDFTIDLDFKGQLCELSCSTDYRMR

As for `Cn1cc(-n2cnc3c(NCc4nc5cc(Cl)c(Cl)cc5[nH]4)nc(N4CCOCC4)nc32)cn1`, the % of control in assay [1] came out at 1.65%.

Turning to `Cc1cc([C@@H](C)Nc2ccccc2C(=O)O)c2nc(N3CCOCC3)cc(=O)n2c1` [AZD-6482], the % of control in assay [2] and in assay [3] was 100% in each case.

Take `O=C(NOC[C@H](O)CO)c1ccc(F)c(F)c1Nc1ccc(I)cc1F`: the % of control in assay [4] worked out at 100%.

In turn, `COc1cc(N(C)c2ccnc3ccc(C(F)(F)F)cc23)cc(OC)c1OC` showed a % binding in assay [5] of 92%.

In [6], `COCCN1CCC(c2cc(CN(C)C(=O)c3cccc(Oc4ccccc4)c3)ccn2)CC1` had an IC50 of over 10 µM.

For the compound `CN1Cc2nccc(-c3cn(C)nc3-c3ccc(F)cc3)c2C1=O`, in assay [7], the % of inhibition is -4%.

`CC[C@@H]1[C@H](F)C(=O)N[C@@H]1COc1nccc2cc(C(N)=O)c(OC)cc12` [ZIMLOVISERTIB]: in assay [8], the % of inhibition was determined as 0.5%.

In the case of `COc1cc(C(=O)N2CC[C@@H](O)[C@@H](N)C2)cc2nc(-c3cc4ccccc4n3CC3CC3)n(C)c12`, the pXC50 at D(1A) dopamine receptor is under 4.5 M.
